In patent EP0052964A1, “Adenine derivatives possessing pharmacological activity” (BEECHAM GROUP PLC, priority 1980, dated 1982):

Tested on: male rats (Sprague-Dawley from Tuck's)
Assay: hypocholesterolaemic and hypotriglyceridaemic effects in rats fed a sucrose-rich semisynthetic diet containing 0.25% cholesterol
Assay type: in vivo
Conditions: percentage change from control values, compound at 0.1% in diet for 7 days
Method: The hypocholesterolaemic and hypotriglyceridaemic effects of 6-amino-9-[(2-hydroxy-3-thiomorpholino)propyl]purine (Compound 1) and 6-amino-9-([2-hydroxy-3-(2,6-cis-dimethylmorpholino)]propyl)-purine (Compound 2) were assessed as follows.
Groups of 8 male rats (Sprague-Dawley from Tuck's) weighing 80-100g were adapted to a sucrose-rich semisynthetic diet containing 0.25% cholesterol by progressive dilution over 7 days of a powdered commercially available diet (Oxoid). Compounds were then added to the semisynthetic diet at the level of 0.1% and these diets were fed for 7 days. The rats were then killed and the serum total cholesterol and triglyceride were measured by a Technicon Auto-Analyser. The results are expressed as percentage change from control values.

## Nc1ncnc2c1ncn2CC(O)CN1CCSCC1 (stereo not drawn) [Compound 1, 6-amino-9-[(2-hydroxy-3-thiomorpholino)propyl]-purine]
  Liver wt. as % body wt.: +1%
* = statistically significant
  Serum Triglyceride: -8 percentage
Serum total cholesterol, * = statistically significant
  Serum Cholesterol: -57* percentage
